These results are taken from US20230023092A1, “TREATMENT OF DEPRESSION AND OTHER VARIOUS DISORDERS WITH PSILOCYBIN” (COMPASS […], priority 2019, published 2023).

The assay deals with healthy subjects. Briefly: CANTAB Paired Associates Learning (PALTEA). Format: in vivo, human. Particulars: Day 28. An excerpt:
In some embodiments, the Paired Associates Learning (PAL) test is utilized to evaluate safety and/or efficacy of psilocybin. The PAL task is a measure of visuo-spatial memory in which study subjects are required to remember locations at which visual stimuli are located. […] One or more of them will contain a pattern. […] If the subject makes an error, the boxes are opened in sequence again to remind the subject of the locations of the patterns. Increased difficulty levels can be used to test high-functioning, healthy individuals. The primary metric for this test is the number of errors made. This test takes approximately 8 min to complete. […]
The following list of outcome measures are non-exhaustive. • a. The short-term change from Baseline (Day −1 [Visit 2]) to Day 7 (Visit 5) in cognitive measures of attention, spatial and working memory and executive function was measured by a composite score of the CANTAB Panel (Spatial Working Memory [SWM], Rapid Visual Information Processing [RVP], Paired Associates Learning [PAL]). • b. The short-term change from Baseline (Day −1 [Visit 2]) to Day 7 (Visit 5) in Social Cognition Panel scales (Pictorial Empathy Test [PET], Reading the Mind in the Eyes Test [RMET], Toronto Empathy Questionnaire [TEQ], Social Value Orientation [SVO], Scale of Social Responsibility [SSR]). • c. […]

The structures appear in SMILES notation.

As for `CN(C)CCc1c[nH]c2cccc(OP(=O)(O)O)c12` [Psilocybin, psilocybin], the “PALTEA improvement compared to placebo (LS mean difference from placebo)” value is, setting by setting: (10 mg) roughly 2 point; (25 mg) roughly 2 point.
